Results: the kinase profiling compilation of Christmann-Franck et al. (2016)

Tests used:
Assay in all cases: radiometric filter-binding kinase assay, Kinase HotSpot
Settings in all cases: compound 0.5 µM; ATP 10 µM
ROCK2 (human) = ROCK2 (human) (UniProt O75116)
MAPK10 (human) = MAPK10 (human) (UniProt P53779)
[1] = target: JAK1 JH1 catalytic (human) (UniProt P23458)
ROCK1 (human) = ROCK1 (human) (UniProt Q13464)
SIK2 (human) = SIK2 (human) (UniProt Q9H0K1)
CDK4 CCND1 (human) = CDK4 CCND1 (human) (UniProt P24385+P11802)
PRKD2 (human) = PRKD2 (human) (UniProt Q9BZL6)
TSSK2 (human) = TSSK2 (human) (UniProt Q96PF2)
CAMK2D (human) = CAMK2D (human) (UniProt Q13557)
PRKCH (human) = PRKCH (human) (UniProt P24723)
CSNK1G3 (human) = CSNK1G3 (human) (UniProt Q9Y6M4)
DYRK1B (human) = DYRK1B (human) (UniProt Q9Y463)
ROS1 (human) = ROS1 (human) (UniProt P08922)
MAPK11 (human) = MAPK11 (human) (UniProt Q15759)
MARK4 (human) = MARK4 (human) (UniProt Q96L34)
STK17A (human) = STK17A (human) (UniProt Q9UEE5)
IRAK1 (human) = IRAK1 (human) (UniProt P51617)
PAK4 (human) = PAK4 (human) (UniProt O96013)
MAPK3 (human) = MAPK3 (human) (UniProt P27361)
CLK4 (human) = CLK4 (human) (UniProt Q9HAZ1)
ABL2 (human) = ABL2 (human) (UniProt P42684)
PRKCD (human) = PRKCD (human) (UniProt Q05655)
MAPK8 (human) = MAPK8 (human) (UniProt P45983)
EPHB1 (human) = EPHB1 (human) (UniProt P54762)
TBK1 (human) = TBK1 (human) (UniProt Q9UHD2)
CSNK2A2 (human) = CSNK2A2 (human) (UniProt P19784)
CHEK1 (human) = CHEK1 (human) (UniProt O14757)
CSNK1A1 (human) = CSNK1A1 (human) (UniProt P48729)
NUAK1 (human) = NUAK1 (human) (UniProt O60285)
MAP3K11 (human) = MAP3K11 (human) (UniProt Q16584)
PAK7 (human) = PAK7 (human) (UniProt Q9P286)
STK39 (human) = STK39 (human) (UniProt Q9UEW8)
MAPKAPK5 (human) = MAPKAPK5 (human) (UniProt Q8IW41)
JAK2 JH1 JH2 (human) = JAK2 JH1 JH2 (human) (UniProt O60674)
PIM3 (human) = PIM3 (human) (UniProt Q86V86)
DYRK4 (human) = DYRK4 (human) (UniProt Q9NR20)
ABL1 (human) = ABL1 (human) (UniProt P00519)
PRKCB2 (human) = PRKCB2 (human) (UniProt P05771)
IKBKB (human) = IKBKB (human) (UniProt O14920)

Chain of JAK2 JH1 JH2 (human) (O60674 whole entry, looked up): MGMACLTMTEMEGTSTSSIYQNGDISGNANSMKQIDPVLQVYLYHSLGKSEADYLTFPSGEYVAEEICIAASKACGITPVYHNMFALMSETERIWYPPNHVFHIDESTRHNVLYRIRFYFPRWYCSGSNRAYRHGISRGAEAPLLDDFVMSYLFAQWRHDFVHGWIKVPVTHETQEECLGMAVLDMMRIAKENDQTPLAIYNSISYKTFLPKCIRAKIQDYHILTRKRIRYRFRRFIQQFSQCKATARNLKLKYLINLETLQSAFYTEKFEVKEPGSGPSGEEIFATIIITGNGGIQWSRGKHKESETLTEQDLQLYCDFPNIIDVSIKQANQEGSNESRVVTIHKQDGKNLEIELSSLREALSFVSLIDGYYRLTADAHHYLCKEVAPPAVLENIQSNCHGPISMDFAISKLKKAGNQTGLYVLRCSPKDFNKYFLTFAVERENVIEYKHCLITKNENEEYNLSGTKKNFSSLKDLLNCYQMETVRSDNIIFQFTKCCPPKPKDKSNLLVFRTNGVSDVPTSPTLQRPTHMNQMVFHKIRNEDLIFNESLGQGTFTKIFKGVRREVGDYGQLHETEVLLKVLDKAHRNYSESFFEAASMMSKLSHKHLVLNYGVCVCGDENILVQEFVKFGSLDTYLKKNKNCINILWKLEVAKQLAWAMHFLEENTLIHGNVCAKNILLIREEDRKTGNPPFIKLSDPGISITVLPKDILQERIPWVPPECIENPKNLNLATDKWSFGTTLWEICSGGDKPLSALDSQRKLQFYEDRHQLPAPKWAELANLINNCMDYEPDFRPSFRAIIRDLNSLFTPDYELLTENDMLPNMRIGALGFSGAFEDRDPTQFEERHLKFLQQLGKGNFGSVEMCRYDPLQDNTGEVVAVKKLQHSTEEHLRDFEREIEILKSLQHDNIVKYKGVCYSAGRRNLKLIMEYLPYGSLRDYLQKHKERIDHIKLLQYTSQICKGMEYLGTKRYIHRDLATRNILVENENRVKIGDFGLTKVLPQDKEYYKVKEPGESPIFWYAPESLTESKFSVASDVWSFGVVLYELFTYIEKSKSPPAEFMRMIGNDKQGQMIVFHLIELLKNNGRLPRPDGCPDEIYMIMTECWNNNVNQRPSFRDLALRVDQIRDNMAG
Chain of MAPK10 (human) (P53779 whole entry, looked up): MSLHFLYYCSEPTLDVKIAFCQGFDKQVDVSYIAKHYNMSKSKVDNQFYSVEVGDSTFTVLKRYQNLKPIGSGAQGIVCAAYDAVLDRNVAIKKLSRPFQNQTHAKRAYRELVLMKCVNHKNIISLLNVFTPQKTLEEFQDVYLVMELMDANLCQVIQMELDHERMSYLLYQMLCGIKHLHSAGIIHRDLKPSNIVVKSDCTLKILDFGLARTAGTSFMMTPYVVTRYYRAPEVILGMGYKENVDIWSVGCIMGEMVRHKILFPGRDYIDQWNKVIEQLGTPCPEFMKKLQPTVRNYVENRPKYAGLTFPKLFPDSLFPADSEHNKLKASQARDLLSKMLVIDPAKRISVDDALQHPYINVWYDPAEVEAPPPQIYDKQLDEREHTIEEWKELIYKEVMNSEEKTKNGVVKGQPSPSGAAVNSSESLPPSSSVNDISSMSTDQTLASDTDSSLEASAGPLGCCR
Chain of DYRK1B (human) (Q9Y463 whole entry, looked up): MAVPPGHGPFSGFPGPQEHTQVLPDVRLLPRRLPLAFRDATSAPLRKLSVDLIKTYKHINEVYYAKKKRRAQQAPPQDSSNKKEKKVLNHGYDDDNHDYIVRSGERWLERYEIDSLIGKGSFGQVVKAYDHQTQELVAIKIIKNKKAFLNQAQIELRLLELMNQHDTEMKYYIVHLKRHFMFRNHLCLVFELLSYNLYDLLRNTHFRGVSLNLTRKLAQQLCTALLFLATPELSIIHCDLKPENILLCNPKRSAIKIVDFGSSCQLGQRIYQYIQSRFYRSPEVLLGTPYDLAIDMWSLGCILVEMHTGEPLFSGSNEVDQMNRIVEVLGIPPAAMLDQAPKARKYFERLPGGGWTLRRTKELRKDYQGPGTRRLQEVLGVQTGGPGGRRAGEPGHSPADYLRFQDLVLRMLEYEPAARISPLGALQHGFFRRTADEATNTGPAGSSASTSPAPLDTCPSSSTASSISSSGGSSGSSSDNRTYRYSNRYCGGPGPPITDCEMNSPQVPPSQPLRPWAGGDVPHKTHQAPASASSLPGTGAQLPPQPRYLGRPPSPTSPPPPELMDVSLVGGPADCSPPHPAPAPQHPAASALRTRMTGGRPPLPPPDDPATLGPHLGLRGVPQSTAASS
Chain of CSNK2A2 (human) (P19784 whole entry, looked up): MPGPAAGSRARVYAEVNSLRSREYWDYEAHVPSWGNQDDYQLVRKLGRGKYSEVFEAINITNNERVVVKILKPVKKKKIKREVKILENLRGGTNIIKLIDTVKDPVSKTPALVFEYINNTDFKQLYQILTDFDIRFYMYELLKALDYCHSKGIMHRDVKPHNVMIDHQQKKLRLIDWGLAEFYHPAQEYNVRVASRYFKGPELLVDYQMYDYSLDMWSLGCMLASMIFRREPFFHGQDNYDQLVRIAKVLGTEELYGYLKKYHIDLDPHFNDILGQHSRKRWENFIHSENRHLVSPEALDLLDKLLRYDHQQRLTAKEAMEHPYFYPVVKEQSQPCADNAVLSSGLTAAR
Chain of TBK1 (human) (Q9UHD2 whole entry, looked up): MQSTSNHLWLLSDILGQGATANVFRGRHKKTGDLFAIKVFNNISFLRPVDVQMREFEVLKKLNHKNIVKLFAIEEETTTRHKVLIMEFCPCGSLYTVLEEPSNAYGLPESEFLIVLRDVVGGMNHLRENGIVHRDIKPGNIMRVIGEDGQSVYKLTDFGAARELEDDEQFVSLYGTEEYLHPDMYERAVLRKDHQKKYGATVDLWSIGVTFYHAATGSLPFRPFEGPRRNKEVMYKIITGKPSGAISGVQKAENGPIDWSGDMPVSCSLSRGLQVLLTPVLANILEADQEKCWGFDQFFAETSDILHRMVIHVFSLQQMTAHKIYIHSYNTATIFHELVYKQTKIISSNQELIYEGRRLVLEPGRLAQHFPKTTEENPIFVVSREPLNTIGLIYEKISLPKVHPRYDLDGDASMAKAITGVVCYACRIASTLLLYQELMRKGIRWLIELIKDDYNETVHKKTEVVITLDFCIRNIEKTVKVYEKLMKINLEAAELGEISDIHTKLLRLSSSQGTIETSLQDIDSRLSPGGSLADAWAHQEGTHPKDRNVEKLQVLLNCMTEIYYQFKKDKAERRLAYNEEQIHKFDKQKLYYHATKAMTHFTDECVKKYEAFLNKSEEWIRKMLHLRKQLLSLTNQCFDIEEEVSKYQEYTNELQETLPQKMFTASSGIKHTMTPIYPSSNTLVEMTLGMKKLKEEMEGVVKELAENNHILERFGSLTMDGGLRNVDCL
Chain of CSNK1G3 (human) (Q9Y6M4 whole entry, looked up): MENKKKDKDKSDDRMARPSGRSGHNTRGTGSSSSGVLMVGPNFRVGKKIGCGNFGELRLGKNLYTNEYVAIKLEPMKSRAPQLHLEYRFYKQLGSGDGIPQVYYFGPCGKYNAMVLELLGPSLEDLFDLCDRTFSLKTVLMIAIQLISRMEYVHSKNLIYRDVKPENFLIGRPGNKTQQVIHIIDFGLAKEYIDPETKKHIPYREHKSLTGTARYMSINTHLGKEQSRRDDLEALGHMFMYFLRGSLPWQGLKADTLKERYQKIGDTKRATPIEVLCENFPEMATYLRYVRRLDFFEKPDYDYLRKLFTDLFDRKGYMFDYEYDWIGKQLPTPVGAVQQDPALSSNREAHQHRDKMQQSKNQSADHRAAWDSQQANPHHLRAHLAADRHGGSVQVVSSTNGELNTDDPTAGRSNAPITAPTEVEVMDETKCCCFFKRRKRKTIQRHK
Chain of CHEK1 (human) (O14757 whole entry, looked up): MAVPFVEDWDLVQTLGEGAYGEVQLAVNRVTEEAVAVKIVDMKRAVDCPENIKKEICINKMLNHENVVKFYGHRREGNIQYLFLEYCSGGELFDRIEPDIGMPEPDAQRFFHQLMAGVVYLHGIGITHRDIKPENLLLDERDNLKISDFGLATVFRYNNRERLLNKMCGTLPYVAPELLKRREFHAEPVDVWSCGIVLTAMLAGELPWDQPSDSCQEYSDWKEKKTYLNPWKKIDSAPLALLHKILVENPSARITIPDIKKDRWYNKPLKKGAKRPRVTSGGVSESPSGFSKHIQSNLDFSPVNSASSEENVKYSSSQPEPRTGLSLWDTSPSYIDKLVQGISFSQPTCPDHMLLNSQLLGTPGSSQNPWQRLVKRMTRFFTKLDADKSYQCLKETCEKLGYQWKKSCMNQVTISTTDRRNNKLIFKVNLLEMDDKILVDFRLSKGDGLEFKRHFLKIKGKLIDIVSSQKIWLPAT
Chain of CAMK2D (human) (Q13557 whole entry, looked up): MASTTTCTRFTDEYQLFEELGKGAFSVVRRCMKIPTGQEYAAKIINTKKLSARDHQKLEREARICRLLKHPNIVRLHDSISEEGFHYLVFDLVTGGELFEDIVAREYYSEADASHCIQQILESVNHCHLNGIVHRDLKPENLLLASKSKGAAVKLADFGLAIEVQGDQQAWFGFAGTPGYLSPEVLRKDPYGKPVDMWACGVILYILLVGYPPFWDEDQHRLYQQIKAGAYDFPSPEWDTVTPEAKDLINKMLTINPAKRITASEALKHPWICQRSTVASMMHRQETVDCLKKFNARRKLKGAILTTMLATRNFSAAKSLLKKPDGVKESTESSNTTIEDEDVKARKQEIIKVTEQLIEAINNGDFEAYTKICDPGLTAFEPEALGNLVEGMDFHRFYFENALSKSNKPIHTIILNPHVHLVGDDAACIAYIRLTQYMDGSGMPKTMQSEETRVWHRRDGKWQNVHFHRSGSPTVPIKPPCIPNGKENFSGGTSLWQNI

## O=C1Nc2ccc(Cl)cc2/C1=C/c1cc(Cl)c(O)c(Cl)c1
ROCK2 (human)
  residual activity: 90.6%
MAPK10 (human)
  residual activity: 98.8%
[1]
  residual activity: 103%
ROCK1 (human)
  residual activity: 93.2%
SIK2 (human)
  residual activity: 95%
CDK4 CCND1 (human)
  residual activity: 94.7%
PRKD2 (human)
  residual activity: 95.5%
TSSK2 (human)
  residual activity: 94.4%
CAMK2D (human)
  residual activity: 80.2%
PRKCH (human)
  residual activity: 90.8%
CSNK1G3 (human)
  residual activity: 93%
DYRK1B (human)
  residual activity: 90.9%
ROS1 (human)
  residual activity: 89.7%
MAPK11 (human)
  residual activity: 99.2%
MARK4 (human)
  residual activity: 78.4%
STK17A (human)
  residual activity: 78.9%
IRAK1 (human)
  residual activity: 95.4%
PAK4 (human)
  residual activity: 88.7%
MAPK3 (human)
  residual activity: 88.2%
CLK4 (human)
  residual activity: 60.7%
ABL2 (human)
  residual activity: 80.4%
PRKCD (human)
  residual activity: 86.7%
MAPK8 (human)
  residual activity: 82.8%
EPHB1 (human)
  residual activity: 91%
TBK1 (human)
  residual activity: 86.8%
CSNK2A2 (human)
  residual activity: 33.3%
CHEK1 (human)
  residual activity: 86.4%
CSNK1A1 (human)
  residual activity: 92.6%
NUAK1 (human)
  residual activity: 72.5%
MAP3K11 (human)
  residual activity: 60.4%
PAK7 (human)
  residual activity: 91.5%
STK39 (human)
  residual activity: 97%
MAPKAPK5 (human)
  residual activity: 92.4%
JAK2 JH1 JH2 (human)
  residual activity: 91.1%
PIM3 (human)
  residual activity: 14.5%
DYRK4 (human)
  residual activity: 95.7%
ABL1 (human)
  residual activity: 84%
PRKCB2 (human)
  residual activity: 97.5%
IKBKB (human)
  residual activity: 93.6%

## O=C1NC(=O)c2c1c1c3ccccc3n3c1c1c2c2ccccc2n1C1CCC3O1
ROCK2 (human)
  residual activity: 73.7%
MAPK10 (human)
  residual activity: 138%
[1]
  residual activity: 22.2%
ROCK1 (human)
  residual activity: 88.7%
SIK2 (human)
  residual activity: 33.9%
CDK4 CCND1 (human)
  residual activity: 11.2%
PRKD2 (human)
  residual activity: 2.02%
TSSK2 (human)
  residual activity: 87.1%
CAMK2D (human)
  residual activity: 7.03%
PRKCH (human)
  residual activity: 47.6%
CSNK1G3 (human)
  residual activity: 108%
DYRK1B (human)
  residual activity: 3.15%
ROS1 (human)
  residual activity: 1.6%
MAPK11 (human)
  residual activity: 108%
MARK4 (human)
  residual activity: 5.31%
STK17A (human)
  residual activity: 8.65%
IRAK1 (human)
  residual activity: 37.5%
PAK4 (human)
  residual activity: 75.3%
MAPK3 (human)
  residual activity: 102%
CLK4 (human)
  residual activity: 20.3%
ABL2 (human)
  residual activity: 68%
PRKCD (human)
  residual activity: 19%
MAPK8 (human)
  residual activity: 98.5%
EPHB1 (human)
  residual activity: 80.2%
TBK1 (human)
  residual activity: 7.4%
CSNK2A2 (human)
  residual activity: 4.47%
CHEK1 (human)
  residual activity: 3.63%
CSNK1A1 (human)
  residual activity: 104%
NUAK1 (human)
  residual activity: 2.09%
MAP3K11 (human)
  residual activity: 1.37%
PAK7 (human)
  residual activity: 64.7%
STK39 (human)
  residual activity: 88.3%
MAPKAPK5 (human)
  residual activity: 80.4%
JAK2 JH1 JH2 (human)
  residual activity: 14.2%
PIM3 (human)
  residual activity: 0.238%
DYRK4 (human)
  residual activity: 87.8%
ABL1 (human)
  residual activity: 72.7%
PRKCB2 (human)
  residual activity: 6.42%
IKBKB (human)
  residual activity: 97.8%

## Nc1ccc2ncnc(NCCc3ccc(Oc4ccccc4)cc3)c2c1
ROCK2 (human)
  residual activity: 90.7%
MAPK10 (human)
  residual activity: 104%
[1]
  residual activity: 94.6%
ROCK1 (human)
  residual activity: 94.4%
SIK2 (human)
  residual activity: 97.4%
CDK4 CCND1 (human)
  residual activity: 102%
PRKD2 (human)
  residual activity: 98.2%
TSSK2 (human)
  residual activity: 94.5%
CAMK2D (human)
  residual activity: 98.9%
PRKCH (human)
  residual activity: 97.9%
CSNK1G3 (human)
  residual activity: 96.8%
DYRK1B (human)
  residual activity: 104%
ROS1 (human)
  residual activity: 97.8%
MAPK11 (human)
  residual activity: 98.1%
MARK4 (human)
  residual activity: 105%
STK17A (human)
  residual activity: 96.9%
IRAK1 (human)
  residual activity: 107%
PAK4 (human)
  residual activity: 105%
MAPK3 (human)
  residual activity: 105%
CLK4 (human)
  residual activity: 94.6%
ABL2 (human)
  residual activity: 102%
PRKCD (human)
  residual activity: 97.6%
MAPK8 (human)
  residual activity: 104%
EPHB1 (human)
  residual activity: 97.9%
TBK1 (human)
  residual activity: 100%
CSNK2A2 (human)
  residual activity: 103%
CHEK1 (human)
  residual activity: 101%
CSNK1A1 (human)
  residual activity: 102%
NUAK1 (human)
  residual activity: 94.7%
MAP3K11 (human)
  residual activity: 103%
PAK7 (human)
  residual activity: 106%
STK39 (human)
  residual activity: 83.9%
MAPKAPK5 (human)
  residual activity: 101%
JAK2 JH1 JH2 (human)
  residual activity: 103%
PIM3 (human)
  residual activity: 104%
DYRK4 (human)
  residual activity: 93.7%
ABL1 (human)
  residual activity: 89.7%
PRKCB2 (human)
  residual activity: 104%
IKBKB (human)
  residual activity: 100%
